Key:
Type in all cases: in vivo
Parameters in all cases: key: 5=total damage to plant; 0=no damage to plant
ZEAMX = Zea mays [1] = experiment: Pre-emergence herbicidal activity, glasshouse pot test
Description: (§1) Seeds of a variety of test species were sown in standard soil in pots. After cultivation for one day (pre-emergence) under controlled conditions in a glasshouse (at 24/16° C., day/night; 14 hours light; 65% humidity), the plants were sprayed with an aqueous spray solution derived from the formulation of the technical active ingredient in acetone/water (50:50) solution containing 0.5% Tween 20 (polyoxyethelyene sorbitan monolaurate, CAS RN 9005-64-5). The test plants were then grown in a glasshouse under controlled conditions (at 24/16° C., day/night; 14 hours light; 65% humidity) and watered twice daily. After 13 days, the test was evaluated (5=total damage to plant; 0=no damage to plant). Pre- and post-emergence testing was carried out as detailed above on the compounds A1, A2, A4 and A5 and their respective S-enantiomers.

[2] = tested on: ABUTH = Abutilon theophrasti; experiment: as above
Description: as §1

[3] = tested on: AMARE = Amaranthus retroflexus; experiment: as above
Description: as §1

SETFA = Setaria faberi [4] = experiment: as above; settings: for SEFTA damage score (0-5): comparison of enantiomers; for SETFA damage score (0-5): 1000 g/Ha, evaluated after 13 days
Description: as §1

[5] = tested on: ECHCG = Echinochloa crus-galli; experiment: as above
Description: as §1

LOLPE [6] = experiment: as above
Description: as §1

ZEAMX = Zea mays [7] = experiment: Post-emergence herbicidal activity, glasshouse pot test
Description: (§2) Seeds of a variety of test species were sown in standard soil in pots. After 8 days cultivation (post-emergence) under controlled conditions in a glasshouse (at 24/16° C., day/night; 14 hours light; 65% humidity), the plants were sprayed with an aqueous spray solution derived from the formulation of the technical active ingredient in acetone/water (50:50) solution containing 0.5% Tween 20 (polyoxyethelyene sorbitan monolaurate, CAS RN 9005-64-5). The test plants were then grown in a glasshouse under controlled conditions (at 24/16° C., day/night; 14 hours light; 65% humidity) and watered twice daily. After 13 days, the test was evaluated (5=total damage to plant; 0=no damage to plant). Pre- and post-emergence testing was carried out as detailed above on the compounds A1, A2, A4 and A5 and their respective S-enantiomers.

[8] = tested on: ABUTH = Abutilon theophrasti; experiment: as above
Description: as §2

[9] = tested on: AMARE = Amaranthus retroflexus; experiment: as above
Description: as §2

SETFA = Setaria faberi [10] = experiment: as above; settings: for SEFTA damage score (0-5): comparison of enantiomers; for SETFA damage score (0-5): 1000 g/Ha, evaluated after 13 days
Description: as §2

[11] = tested on: ECHCG = Echinochloa crus-galli; experiment: as above
Description: as §2

LOLPE [12] = experiment: as above
Description: as §2

[13] = comparison of enantiomers, 62.5 g/Ha
[14] = comparison of enantiomers, 250 g/Ha
[15] = 1000 g/Ha, evaluated after 13 days

SMILES | ZEAMX damage score (0-5) (ZEAMX = Zea mays [1]; [13]) | ZEAMX damage score (0-5) (ZEAMX = Zea mays [1]; [14]) | ABUTH damage score (0-5) [2, 13] | ABUTH damage score (0-5) [2, 14] | AMARE damage score (0-5) [3, 13] | AMARE damage score (0-5) [3, 14] | SEFTA damage score (0-5) (SETFA = Setaria faberi [4]; 250 g/Ha) | ECHCG damage score (0-5) [5, 13] | ECHCG damage score (0-5) [5, 14] | LOLPE damage score (0-5) (LOLPE [6]; [13]) | LOLPE damage score (0-5) (LOLPE [6]; [14]) | ZEAMX damage score (0-5) (ZEAMX = Zea mays [7]; [14]) | ABUTH damage score (0-5) [8, 13] | ABUTH damage score (0-5) [8, 14] | AMARE damage score (0-5) [9, 13] | AMARE damage score (0-5) [9, 14] | SEFTA damage score (0-5) (SETFA = Setaria faberi [10]; 62.5 g/Ha) | SEFTA damage score (0-5) (SETFA = Setaria faberi [10]; 250 g/Ha) | ECHCG damage score (0-5) [11, 13] | ECHCG damage score (0-5) [11, 14] | further results
CCO[C@H]1C(O)N(c2cc(C(C)(C)F)on2)C(=O)N1C (stereo partly drawn) [A5 S-enantiomer, reference compound] | 0 | 0 | 0 | 0 | 5 | 5 | 0 | 0 | 0 | 0 | 0 | 0 | 0 | 1 | 1 | 5 | 0 | 1 | 0 | 0 | SEFTA damage score (0-5) (SETFA = Setaria faberi [4]; 62.5 g/Ha): 0; ZEAMX damage score (0-5) (ZEAMX = Zea mays [7]; [13]): 0; LOLPE damage score (0-5) (LOLPE [12]; [13]): 0; LOLPE damage score (0-5) (LOLPE [12]; [14]): 0
CO[C@@H]1C(O)N(c2cc(C(C)(C)C)on2)C(=O)N1C (stereo partly shown) [Example A1] | 4 | 5 | 4 | 2 | 5 | 5 | 5 | 5 | 5 | 1 | 5 | 5 | 2 | 5 | 5 | 5 | 5 | 5 | 5 | 5 | ZEAMX damage score (0-5) (ZEAMX = Zea mays [1]; [15]): 3; ABUTH damage score (0-5) [2, 15]: 5; AMARE damage score (0-5) [3, 15]: 5; SETFA damage score (0-5) (SETFA = Setaria faberi [4]): 5; SEFTA damage score (0-5) (SETFA = Setaria faberi [4]; 62.5 g/Ha): 4; ECHCG damage score (0-5) [5, 15]: 5; LOLPE damage score (0-5) (LOLPE [6]; [15]): 5; ZEAMX damage score (0-5) (ZEAMX = Zea mays [7]; [15]): 5; ZEAMX damage score (0-5) (ZEAMX = Zea mays [7]; [13]): 5; ABUTH damage score (0-5) [8, 15]: 5; AMARE damage score (0-5) [9, 15]: 5; SETFA damage score (0-5) (SETFA = Setaria faberi [10]): 5; ECHCG damage score (0-5) [11, 15]: 5; LOLPE damage score (0-5) (LOLPE [12]; [15]): 5; LOLPE damage score (0-5) (LOLPE [12]; [13]): 5; LOLPE damage score (0-5) (LOLPE [12]; [14]): 5
COC[C@@H]1C(O)N(c2cc(C(C)(C)C)on2)C(=O)N1C (stereo partly drawn) [Example A4, (4R)-1-(5-tert-butylisoxazol-3-yl)-5-hydroxy-4-(methoxymethyl)-3-methyl-imidazolidin-2-one] | 0 | 4 | 1 | 3 | 5 | 5 | 5 | 1 | 5 | 0 | 5 | 5 | 1 | 5 | 5 | 5 | 1 | 5 | 0 | 5 | ZEAMX damage score (0-5) (ZEAMX = Zea mays [1]; [15]): 3; ABUTH damage score (0-5) [2, 15]: 5; AMARE damage score (0-5) [3, 15]: 5; SETFA damage score (0-5) (SETFA = Setaria faberi [4]): 4; ECHCG damage score (0-5) [5, 15]: 5; LOLPE damage score (0-5) (LOLPE [6]; [15]): 5; ZEAMX damage score (0-5) (ZEAMX = Zea mays [7]; [15]): 5; ABUTH damage score (0-5) [8, 15]: 5; AMARE damage score (0-5) [9, 15]: 5; SETFA damage score (0-5) (SETFA = Setaria faberi [10]): 5; ECHCG damage score (0-5) [11, 15]: 5; LOLPE damage score (0-5) (LOLPE [12]; [15]): 5; LOLPE damage score (0-5) (LOLPE [12]; [13]): 1; LOLPE damage score (0-5) (LOLPE [12]; [14]): 5
CCO[C@@H]1C(O)N(c2cc(C(C)(C)F)on2)C(=O)N1C (stereo partly shown) [Example A5] | 5 | 5 | 5 | 5 | 5 | 5 | 5 | 5 | 2 | 4 | 5 | 5 | 5 | 5 | 5 | 5 | 5 | 5 | 5 | 5 | ZEAMX damage score (0-5) (ZEAMX = Zea mays [1]; [15]): 3; ABUTH damage score (0-5) [2, 15]: 5; AMARE damage score (0-5) [3, 15]: 5; SETFA damage score (0-5) (SETFA = Setaria faberi [4]): 5; SEFTA damage score (0-5) (SETFA = Setaria faberi [4]; 62.5 g/Ha): 5; ECHCG damage score (0-5) [5, 15]: 5; LOLPE damage score (0-5) (LOLPE [6]; [15]): 5; ZEAMX damage score (0-5) (ZEAMX = Zea mays [7]; [15]): 5; ZEAMX damage score (0-5) (ZEAMX = Zea mays [7]; [13]): 5; ABUTH damage score (0-5) [8, 15]: 5; AMARE damage score (0-5) [9, 15]: 5; SETFA damage score (0-5) (SETFA = Setaria faberi [10]): 5; ECHCG damage score (0-5) [11, 15]: 5; LOLPE damage score (0-5) (LOLPE [12]; [15]): 5; LOLPE damage score (0-5) (LOLPE [12]; [13]): 5; LOLPE damage score (0-5) (LOLPE [12]; [14]): 5
